From US20190167771A1, “CONTROL ANGIOGENESIS BY REGULATING PHOSPHORYLATION OF SERYL-tRNA SYNTHETASE (SerRS)” (The Scripps Research Institute, priority 2016, published 2019)

Test system: VEGFA
Assay: VEGFA expression by qRT-PCR in HEK293 cells transfected with SerRS constructs
Assay type: cell-based, human
Settings: HEK293 cells transfected with construct
Description: In FIG. 2A, wild type SerRS (SerRS^WT), its mutants with double substitutions of serine 101 and 241 with alanine or aspartic acid residues (SerRS^S101A/S241A and SerRS^S101D/S241D), or empty vector were transfected into HEK293 cells. The expression levels of SerRS proteins was measured by immunoblot (bottom) and VEGFA expression was determined by qRT-PCR (means±SEM from three independent experiments; ***P<0.0001). […] At 3 day post fertilization (dpf), embryos were harvested and Vegfa expression levels were measured by qRT-PCR (means±SEM, n=125-211; *P<0.01, **P<0.001) (B). The development of intersegmental vessel (ISV) at 3 dpf was examined (C) and the statistics of ISV abnormal branching rescued by SerRS^WT or mutant SerRS mRNA injections was analyzed (D; χ^2-test,* P>0.05 vs SerRS^WT, **P>0.1 vs SerRS-MO, ***P<1×10^−28 vs control-MO). […] In FIG. 2G, the binding of endogenous SerRS on VEGFA promoter during hypoxia course was monitored by ChIP (means±SEM from three independent experiments; *P<0.05, **P<0.005 vs normal). […]
HEK293 cells were transfected with wild type (WT) SerRS or SerRS mutants. […] At 24 hours post-transfection, cells were harvested and VEGFA expression levels were measured by qRT-PCR and relative VEGFA transcription were plotted after being normalized to 1-actin (means±: SEM).

## SerRS^S101D/S241D: SerRS with double substitutions of S101 and S241 with aspartic acid, mimics the phosphorylated SerRS
  repression of VEGFA transcription: can no longer repress VEGFA transcription
